Test results as given in patent publication US20180110824A1, “Macrocyclic Modulators of the Ghrelin Receptor” (Ocera Therapeutics, Inc., priority 2016, published 2018).
Like-named read-outs stand apart in the source and are kept apart here.

Target: T1, human growth hormone secretagogue receptor (hGHS-R1a) (Homo sapiens, UniProt Q92847)
T1 construct: purchased PerkinElmer BioSignal #RBHGHSM; host or cells: HEK-293, stably transfected
Experiment: Competitive radioligand binding assay (ghrelin receptor), [125I]-ghrelin displacement on GHS-R/HEK 293 membranes;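 as to Binding Activity at the Human Ghrelin Receptor (Ki): symbols B 10-100 nM C 0.1-1 µM D 1-10 µM F above 1 µM G above 10 µM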
Experimental: The competitive binding assay at the human growth hormone secretagogue receptor (hGHS-R1a) was carried out analogously to assays described in the literature.
Multiscreen Harvest plates-GF/C (Millipore, #MAHFC1H60) • 4. […] Bottom seal (Millipore, #MATAH0P00) • 7. […] Binding Buffer: 25 mM Hepes (pH 7.4), 1 mM CaCl2, 5 mM MgCl2, 2.5 mM EDTA, 0.4% BSA
Competition experiments were performed in a 300 μl filtration assay format. • 1. 220 μL of membranes diluted in binding buffer • 2. 40 μL of compound diluted in binding buffer • 3.
Compounds were provided frozen on dry ice at a stock concentration of 10 mM diluted in 100% DMSO and stored at −80° C. until the day of testing. On the test day, compounds were allowed to thaw at rt O/N and then diluted in assay buffer according to the desired test concentrations. Under these conditions, the maximal final DMSO concentration in the assay was 0.1%.
Plates were sealed with TopSeal-A, vortexed gently and incubated at rt for 30 min. The reaction was arrested by filtering samples through Multiscreen Harvest plates (pre-soaked in 0.5% polyethyleneimine) using a Tomtec Harvester, washed 9 times with 500 μL of cold 50 mM Tris-HCl (pH 7.4, 4° C.), and then plates were air-dried in a fumehood 30 min. A bottom seal was applied to the plates prior to the addition of 25 μL of MicroScint-0 to each well. […] Results were expressed as counts per minute (cpm).
Data were analyzed by GraphPad Prism (GraphPad Software, San Diego, Calif.) using […] non-linear regression analysis.
where total and non-specific binding represent the cpm obtained in the absence or presence of 1 μM ghrelin, respectively.
• 1. Binding performed on membranes prepared from HEK293 expressing the transfected, cloned human ghrelin receptor (hGHS-R1a). • 2. […] Ghrelin (unlabeled, 1 μM) was used to determine non-specific binding. • 4.

[1] = Binding activity at the human ghrelin receptor, [125I]-ghrelin displacement, read-out: Ki
[2] = Table 3B, binding activity at the human ghrelin receptor, read-out: Ki
[3] = [125I]-ghrelin displacement, GHS-R/HEK 293 membranes, class symbols, read-out: Binding Activity at the Human Ghrelin Receptor (Ki)

T1 sequence (Q92847 whole entry): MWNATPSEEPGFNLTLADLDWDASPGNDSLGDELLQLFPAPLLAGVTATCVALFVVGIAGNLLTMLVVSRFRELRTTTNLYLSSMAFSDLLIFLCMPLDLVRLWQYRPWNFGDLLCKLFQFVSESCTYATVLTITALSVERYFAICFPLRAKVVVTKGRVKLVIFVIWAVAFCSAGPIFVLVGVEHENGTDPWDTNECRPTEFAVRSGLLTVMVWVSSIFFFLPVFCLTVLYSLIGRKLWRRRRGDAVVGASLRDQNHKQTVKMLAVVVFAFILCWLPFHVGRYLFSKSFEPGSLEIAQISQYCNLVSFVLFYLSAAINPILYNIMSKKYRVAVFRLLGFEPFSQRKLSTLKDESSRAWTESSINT

For CC(C)C[C@H]1NCCOc2ccccc2CCCNC(=O)[C@H](Cc2ccccc2)NC(=O)C2(CCCC2)NC1=O [compound 96], the Ki [1] was > 10000 nM.
For COc1ccc(C[C@@H]2NCCOc3ccccc3/C=C/CNC(=O)[C@H](Cc3ccccc3)NC(=O)C3(CCCC3)NC2=O)cc1 [compound 127], the Ki [1] was 100 to 1000 nM.
CCC[C@@H]1NCCOc2ccccc2CCCNC(=O)[C@@H](CCCN)NC(=O)CN(C)C1=O [compound 53] was tested, and the Ki [1] was > 10000 nM.
C[C@@H]1C(=O)N[C@H](Cc2ccc(F)cc2)C(=O)NC/C=C\c2ccccc2OCCN[C@@H](C2CC2)C(=O)N1C [compound 400] was tested, and the Ki [2] was 10 to 100 nM.
C[C@@H]1C(=O)N[C@H](Cc2cccc(Cl)c2)C(=O)NC/C=C/c2ccccc2OCCNC2(CCCC2)C(=O)N1C [compound 396] showed a Ki (Table 3C, read-out: Ki) of 10 to 100 nM.
In the case of CCC(C)C1NCCOc2ccccc2C=CCNC(=O)C(Cc2cccc(C(F)(F)F)c2)NC(=O)C2(CCCC2)NC1=O (centres unmarked) [332a], the Ki [2] is reported as 10 to 100 nM.
Molecule CC(C)C[C@@H]1NCCOc2ccccc2CCCNC(=O)[C@H](CCc2ccccc2)NC(=O)C2(CCCC2)NC1=O [compound 90] has a Ki [1] of 1000 to 10000 nM.
CC[C@H](C)[C@@H]1NCc2ccccc2CCCCCNC(=O)[C@H](Cc2cccc(Cl)c2)NC(=O)C2(CCCC2)NC1=O [compound 362] gave a Ki [2] of 100 to 1000 nM.
NCCCC[C@@H]1NCCOc2ccccc2CCCNC(=O)[C@H](Cc2ccccc2)NC(=O)C2(CCCC2)NC1=O [compound 103] was tested, and the Ki [1] was > 10000 nM.
With CCC[C@@H]1NCCOc2ccccc2CCCNC(=O)[C@@H](Cc2ccccc2)NC(=O)[C@@H](CCC(=O)O)NC1=O [compound 71] the Ki [1] was > 10000 nM.
With CC1CCNC(=O)[C@@H](Cc2ccc(F)cc2)NC(=O)[C@@H](C)N(C)C(=O)[C@H](C2CC2)NCCOc2ccccc21 (some centres unmarked) [compound 375] the Ki [2] was 100 to 1000 nM.
CC(C)C[C@@H]1NCCOCCNC(=O)[C@H](Cc2ccccc2)NC(=O)C2(CCCC2)NC1=O [compound 44] was tested, and the Ki [1] was > 10000 nM.
Molecule CCC[C@@H]1NCCOc2ccccc2CCCNC(=O)[C@@H](Cc2ccccc2)NC(=O)CNC1=O [compound 61] has a Ki [1] of 100 to 1000 nM.
With C[C@@H]1C(=O)N[C@H](Cc2ccc(F)cc2)C(=O)NCCCc2ccccc2OCCN[C@@H](CCN)C(=O)N1C [compound 338] the Ki [2] was 100 to 1000 nM.
Work on CCC[C@@H]1NCCOc2ccccc2CCCNC(=O)[C@@H](Cc2ccccc2)NC(=O)C(C)(C)NC1=O [compound 66] yielded a Ki [1] of 100 to 1000 nM.
For CC(C)C[C@@H]1NCCOc2ccccc2/C=C/CNC(=O)[C@H](Cc2cscn2)NC(=O)C2(CCCC2)NC1=O [compound 163], the Ki [3] was > 10000 nM.
With O=C1NC/C=C/c2ccccc2OCCNC2(CCCCC2)C(=O)NC2(CCCC2)C(=O)N[C@H]1Cc1ccccc1 [compound 218] the Ki [3] was 10 to 100 nM.
CCCC1NCCOc2ccccc2CCCNC(=O)C(C(C)c2ccccc2)NC(=O)CN(C)C1=O (centres unmarked) [compound 448] was tested, and the Ki (Table 3D, read-out: Ki) was 1000 to 10000 nM.
Molecule CCC[C@@H]1NCCOc2ccccc2CCCNC(=O)[C@@H](Cc2ccccc2)NC(=O)C2(CCCC2)NC1=O [compound 67] has a Ki [1] of 100 to 1000 nM.
C[C@H]1C(=O)N[C@H](Cc2cccc(Cl)c2)C(=O)NC/C=C/c2ccccc2OCCNC2(CCCC2)C(=O)N1C [compound 397] gave a Ki (Table 3C, read-out: Ki) of 100 to 1000 nM.
In the case of CC[C@H](C)[C@@H]1NCCOc2ccccc2/C=C\CNC(=O)[C@H](Cc2cccc(Cl)c2)NC(=O)C2(CCCC2)NC1=O [compound 380], the Ki [2] is reported as 100 to 1000 nM.
CC(C)C[C@@H]1NCCOc2ccccc2CCCNC(=O)[C@H](Cc2ccccc2)NC(=O)[C@H]2CCCN2C1=O [compound 223] showed a Ki (Table 3E, read-out: Ki) of 1000 to 10000 nM and a Ki [3] of 1000 to 10000 nM.
